In brackets after ≈: the same amount, converted by molar mass.
How the values were obtained:
[1] = cited from earlier work
[2] = assay type: physicochemical
Protocol: To 31.0 g of tefuryltrione and 11.5 g of diphenylamine (equivalent mol to tefuryltrione), 10 mL of toluene was added and refluxed under heating at 90° C. for 1 hour. […] The melting point of the obtained compound was measured using a DSC (Differential Scanning calorimetry) and compared with those of the starting materials (Table 1).
The solubilities of the pesticide active ingredients in toluene and a toluene/isooctane mixture liquid (80/20, v/v) at room temperature were determined (Table 2).

Q: For c1ccc(C(c2ccccc2)c2ccccc2)cc1 [triphenylmethane], which “Water solubility (in words)” value [1] is on record?
A: water insoluble

Q: With c1ccc(-c2ccccc2)cc1 [biphenyl] as the compound, how does the Water solubility [1] read?
A: 7 ppm

Q: Which “Solubility, Toluene” value [2] does the source give for CS(=O)(=O)c1ccc(C(=O)C2C(=O)CCCC2=O)c(Cl)c1COCC1CCCO1 (stereo not shown) [Tefuryltrione, tefuryltrione] here?
A: 97.8 mg/mL (≈ 221 mM)

Q: And the “Solubility, Toluene/isooctane mixture liquid (80/20, v/v)” value [2]?
A: 49.4 mg/mL (≈ 112 mM)
